As a reminder, the melting point is the temperature of the solid-liquid transition.

A value given as a limit tells only on which side of the number the result lay.

The compound `COC(C)(CC(=O)Nc1ccccc1)OC` displayed a melting point of 80 °C.

`O=C(O)CCCC(=O)c1cc2c(=O)c3ccccc3ccc2s1` showed a melting point of 149 to 151 °C.

As to `CC(=O)OC1CC2(C)C(Sc3ccccc3)=CCC2C2CCC3=CC(=O)C=CC3(C)C12F` (stereo unspecified), the melting point is 229 to 231 °C.

The compound `COc1ccc(CNc2ncc(Cl)cc2C(=O)O)cc1` gave a melting point of 204 to 206 °C.

The compound `CN(C)C(=O)CCSC(SCCC(=O)O)c1cccc(C=Cc2ccc3ccc(Cl)cc3n2)c1` (stereo unspecified) displayed a melting point of 153 to 155 °C.

`CC(C)=NOCc1nc2c(N)nc(C)c(C)c2n1CCCCNC(=O)c1ccccc1`: the melting point fell in the range of 206 to 208 °C.

In turn, `CC(C)(C)OC(=O)[C@@H]1CN(Cc2ccccc2)C(=O)N1` showed a melting point of 96 to 98 °C.

Regarding `CCn1ncc2c3c(NCc4ccc(OC)c(Cl)c4)nnc(-n4cnc(C(=O)NC)c4)c3cnc21`, the melting point lay in the range of 181 to 183 °C.

The compound `O=C(Nc1ccc(F)nc1)c1cccc(-c2cccc3oc(Cc4cccc(C(F)(F)F)c4)cc23)c1` yielded a melting point of 117 to 118 °C.

Compound `CCOC(=O)C(N)C=CCP(=O)(O)O` (stereo unspecified) had a melting point of 167 to 168 °C.

Consider `Cn1c(C(F)(F)F)cc(=O)n(-c2c(F)cc(Cl)c3nc(N)oc23)c1=O`, for which the melting point lay in the range of 144 to 150 °C.

The compound `CC1(O)CC(=O)OC(CCCc2ccc(OCc3ccccc3)cc2)C1Br` (stereo unspecified) yielded a melting point of 100 to 101 °C.

As for `Cc1cccc(C)c1NC(=O)N=C1CCCN1C`, the melting point lay in the range of 119 to 120 °C.

Consider `O=C(O)COc1cccc2c1Cc1sc(S(=O)(=O)CCCC(c3ccccc3)c3ccccc3)nc1-2`, for which the melting point was 97 to 101 °C.

As for `CCOC(=O)C(=Cc1cc(C(=O)OCC)c(=O)n2ccccc12)C(=O)OCC`, the melting point lay in the range of 149 to 151 °C.

The compound `CCn1cc(C(=O)NCc2ccc(Cl)cc2)c(=O)c2cc(CN(C)C[C@@H](O)c3ccco3)sc21` returned a melting point of 123 to 127 °C.

Compound `CC1CCC(N(CC2CCC(CN(C(=O)Nc3ccc(N4CCCC4)cc3)C3CCC(C)CC3)CC2)C(=O)Nc2ccc(N3CCCC3)cc2)CC1` (stereo unspecified) had a melting point of 149 to 155 °C.

For `CCOC(=O)CCCCCCCn1c(Cc2ccccc2)nc(-c2ccccc2)c1-c1ccccc1`, the melting point lay within 82 to 83 °C.

In the case of `CCN1C(=O)C2CCc3c(Br)ccc(OC)c3C2C1=O` (stereo unspecified), the melting point lay within 170 to 174 °C.

`CCCn1nc(CO)cc1OCc1ccc2ccccc2n1` came in with a melting point of 98 to 99 °C.

Regarding `CN1C(=O)CN=C(c2ccccc2F)c2c1ccc(NC(=O)NCCO)c2Cl`, the melting point lay in the range of 150 to 153 °C.

With `CC(=O)N1CCC(F)(Cc2c3c(nn2C)c(N)nc2ccccc23)CC1`, the melting point lay within 241 to 243 °C.

`C=CCSc1nnc(Cl)c(C)c1C`: the melting point lay in the range of 51 to 53 °C.

For the compound `CCCOc1c(-c2cc(C=CC(=O)O)ccc2OC)cc(C(C)(C)C)cc1C(C)(C)C`, the melting point was in the range of 107 to 109 °C.

In turn, `CS(=O)c1ccc(C2CCCC(=O)N2c2ccc(Cl)cc2)cc1` (stereo unspecified) registered a melting point of 142 to 165 °C.

`CCOC(=O)c1cc(NC(=O)C(Cc2ccccc2)NC(=O)OC(C)(C)C)c[nH]1` (stereo unspecified) yielded a melting point of 148 to 151 °C.

Consider `CC(=O)c1ccc(S(=O)(=O)NCc2ccccc2-c2ccccc2C(=O)NCCc2ccccc2)cc1`, for which the melting point is 145 °C.

Turning to `CSc1c(SC)c(OC(C)=O)c2cc(Cl)ccc2c1OC(C)=O`, the melting point lay in the range of 113 to 114 °C.

In turn, `Nc1cc(Oc2cc(Cl)cc(Cl)c2)nc(C(=O)O)c1Cl` registered a melting point of 196 °C.

In turn, `O=Cc1ccc(-c2ccc(-c3ccsc3)s2)s1` had a melting point of 155 to 157 °C.

Take `CCOC(=O)c1c(Cl)nc2ccc(OC)cc2c1CCl`: the melting point is 215 to 219 °C.

In the case of `N#Cc1cc2ccccc2n1-c1ccc(CO)cc1`, the melting point is more than 270 °C.

As to `CC(C)(C)C(=O)OCOP(=O)(CCCCc1ccccc1)CC(=O)O` (stereo unspecified), the melting point was in the range of 48 to 50 °C.

In turn, `O=C(Nc1cc(Cl)c(O)c(Cl)c1)c1ccc(F)cc1O` came in with a melting point of 223 to 224 °C.

The compound `Clc1ccc2c(C3=CCN(CCNc4ccccn4)CC3)c[nH]c2c1` registered a melting point of 217 to 219 °C.

`CC(C)(C)CC(C)(C)c1ccc(Oc2cc3nc(-c4ccco4)oc3cc2[N+](=O)[O-])cc1` had a melting point of 146 to 148 °C.

On to `COC(=O)C(C(=O)OC)=C(C)N`, for which the melting point was in the range of 81 to 82 °C.

Take `COc1ccc(-c2nc(Cn3ccnn3)cs2)cc1`: the melting point is 89 to 94 °C.

For the compound `CCCc1c[nH]nc1OCCCc1cn(-c2ccc(C(F)(F)F)cn2)nc1OCC`, the melting point lay in the range of 121 to 122 °C.

The compound `CC(C)(C)Nc1c([N+](=O)[O-])cc([N+](=O)[O-])c2nc(C(F)F)[nH]c12` gave a melting point of 199 to 201 °C.

`CCC(O)(CC)c1ccc(-c2ccc(OCc3ccc(CO)c(CO)c3)cc2)c(C)c1` returned a melting point of 97 °C.

`CC(=O)C1=C(O)c2c(c3ccccc3n2C)S(=O)(=O)N1` registered a melting point of 210 to 211 °C.

`CC#Cc1cc(=O)n2nc(SCCCCCC)sc2n1` displayed a melting point of 94 to 97 °C.

The compound `CCOC(=O)c1cc(-c2ccc(OC)cc2)nn(CC=Cc2ccc(Cl)cc2)c1=O` yielded a melting point of 127 to 128 °C.

The compound `CC1(c2nc(-c3ccc(Cl)cc3)c(CCC(=O)O)o2)CCCCC1` yielded a melting point of 138 to 139 °C.

`Nc1nc(Cl)c2ncn(C3C=CC(O)C3)c2n1` (stereo unspecified) returned a melting point of 160 to 162 °C.

For `Cc1csc(C)c1C(=O)O`, the melting point lay within 164 to 165 °C.

Compound `CC(C)(C)c1cc(-n2nc3ccc(Sc4ccc5nn(-c6cc(C(C)(C)C)cc(C(C)(C)C)c6O)nc5c4)cc3n2)c(O)c(C(C)(C)C)c1` showed a melting point of 245 to 246 °C.

As to `OCC(O)COc1ccccc1OCc1ccccc1` (stereo unspecified), the melting point lay within 81 to 82.5 °C.

Turning to `COc1ccc(C(=O)Cc2c(Cl)cncc2Cl)c2c(CC(=O)NCc3ccccc3)coc12`, the melting point lay within 244 to 246 °C.

Compound `Cc1cc(SC2=C(O)CC(CCc3ccc(O)cc3)(CCc3ccc(O)cc3)OC2=O)c(C(C)(C)C)cc1OS(=O)(=O)N1CCN(C)CC1` showed a melting point of 150 °C.

Compound `Cc1nnsc1C(=O)NS(C)(=O)=O` gave a melting point of 187 °C.

For the compound `O=C1Nc2ccccc2C12COc1ccc3c(c12)N(Cc1cccnc1)ON3` (stereo unspecified), the melting point lay in the range of 230 to 232 °C.

`CCOC(=O)C(C)(C)n1c(=O)[nH]c2ccsc2c1=O` registered a melting point of 156 to 157 °C.

`CC(=O)N(c1nc2nc(C)cc(C)n2n1)S(=O)(=O)c1c(Cl)cccc1Cl` gave a melting point of 219 to 222 °C.

Turning to `Cc1ccccc1-c1ccc(C(=O)N2Cc3ccc(C(=O)NCc4ccc(Cl)cc4)n3Cc3ccccc32)cc1C`, the melting point fell in the range of 196 to 197 °C.

`NC(=O)c1occc1C(=O)NC1CCN(Cc2ccc3ccccc3c2)CC1`: the melting point lay within 157 to 159 °C.

As to `CNC(=O)/C(=N/OC)c1ccccc1Oc1ccc(C)c(C)c1`, the melting point lay in the range of 98 to 100 °C.

`COc1cc(OC)c2c(=O)[nH]c(-c3ccc(OCCNC(C)C)c(-c4ccccc4S(C)(=O)=O)n3)nc2c1` had a melting point of 178 to 180 °C.

On to `O=CNC1=NN(c2ccc(F)cc2)C(c2ccccc2)C1` (stereo unspecified), for which the melting point is 158 to 160 °C.

In turn, `CS(=O)(=O)Nc1cccc(Nc2nc(NCc3ccccc3CO)c3nc[nH]c3n2)c1` gave a melting point of 145 to 148 °C.

The values are drawn from a melting point compilation (Tetko et al.; mined from patent text by program, amines drawn as free bases though some values may be those of a salt).
